Data from PubChem BioAssay (NCI).
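In this assay, cells in 96-well plates receive the compound at five concentrations for 48 hours. Endpoints are linearly interpolated between the surrounding concentrations. GI50 marks 50% less growth. At the TGI there is no net growth.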

Experiments:
Test in all cases: NCI-60 cell line screen, 48 h
CAKI-1 renal = tested on: CAKI-1 renal
EKVX NSCLC = tested on: EKVX NSCLC
HCT-15 colon = tested on: HCT-15 colon
HOP-92 NSCLC = tested on: HOP-92 NSCLC
HT29 colon = tested on: HT29 colon
NCI-H226 lung = tested on: NCI-H226 lung
NCI-H23 lung = tested on: NCI-H23 lung
OVCAR-5 ovarian = tested on: OVCAR-5 ovarian
RPMI-8226 leukemia = tested on: RPMI-8226 leukemia
SNB-19 CNS = tested on: SNB-19 CNS

**Q.** What does the source list for `CC(=O)O[C@@H]1CN(S(=O)(=O)c2ccc(C)cc2)C[C@@H]1C1CCCCC1`?
**A.** TGI (CAKI-1 renal): 45.6 µM; TGI (EKVX NSCLC): 58.6 µM; TGI (HCT-15 colon): > 100 µM; TGI (HOP-92 NSCLC): 33.8 µM; TGI (HT29 colon): 74 µM; TGI (NCI-H226 lung): 34.6 µM; TGI (NCI-H23 lung): > 100 µM; TGI (OVCAR-5 ovarian): > 100 µM; TGI (RPMI-8226 leukemia): 67.7 µM; TGI (SNB-19 CNS): > 100 µM

**Q.** `CC1CC(c2ccc([N+](=O)[O-])cc2)=Nc2ccccc2S1=O` (stereo not given) was tested. Which TGI (CAKI-1 renal) did it give?
**A.** 61.2 µM

**Q.** And the TGI (EKVX NSCLC)?
**A.** 60.9 µM

**Q.** What about the TGI (HCT-15 colon) of the same compound?
**A.** 28.1 µM

**Q.** What about the TGI (HOP-92 NSCLC) of the same compound?
**A.** > 100 µM

**Q.** What about the TGI (HT29 colon) of the same compound?
**A.** 27.2 µM

**Q.** And the TGI (NCI-H226 lung)?
**A.** 80.4 µM

**Q.** What about the TGI (NCI-H23 lung) of the same compound?
**A.** 37.2 µM

**Q.** What about the TGI (OVCAR-5 ovarian) of the same compound?
**A.** 70 µM

**Q.** And the TGI (RPMI-8226 leukemia)?
**A.** 31.9 µM

**Q.** What about the TGI (SNB-19 CNS) of the same compound?
**A.** 38.5 µM

**Q.** With `CC(CNc1nc(Nc2ccc(Cl)c(Cl)c2)nc(C(Cl)(Cl)Cl)n1)N(C)C` (stereo not given) as the compound, how does the GI50 (CAKI-1 renal) read?
**A.** 1.7 µM

**Q.** And the TGI (CAKI-1 renal)?
**A.** 3.59 µM

**Q.** And the GI50 (EKVX NSCLC)?
**A.** 1.99 µM

**Q.** What about the TGI (EKVX NSCLC) of the same compound?
**A.** 4.62 µM

**Q.** What about the GI50 (HCT-15 colon) of the same compound?
**A.** 1.68 µM

**Q.** And the TGI (HCT-15 colon)?
**A.** 3.15 µM

**Q.** What about the GI50 (HOP-92 NSCLC) of the same compound?
**A.** 1.35 µM

**Q.** What about the TGI (HOP-92 NSCLC) of the same compound?
**A.** 4.16 µM

**Q.** And the GI50 (HT29 colon)?
**A.** 1.66 µM

**Q.** What about the TGI (HT29 colon) of the same compound?
**A.** 3.11 µM

**Q.** And the GI50 (NCI-H226 lung)?
**A.** 1.8 µM

**Q.** And the TGI (NCI-H226 lung)?
**A.** 3.51 µM

**Q.** And the GI50 (NCI-H23 lung)?
**A.** 1.63 µM

**Q.** And the TGI (NCI-H23 lung)?
**A.** 3.38 µM

**Q.** What about the GI50 (OVCAR-5 ovarian) of the same compound?
**A.** 1.61 µM

**Q.** What about the TGI (OVCAR-5 ovarian) of the same compound?
**A.** 3.2 µM

**Q.** And the GI50 (RPMI-8226 leukemia)?
**A.** 1.85 µM

**Q.** And the TGI (RPMI-8226 leukemia)?
**A.** 4.58 µM

**Q.** What about the GI50 (SNB-19 CNS) of the same compound?
**A.** 1.71 µM

**Q.** And the TGI (SNB-19 CNS)?
**A.** 3.18 µM
